{"source": "paper PMC9318133", "about": "(International Journal of Molecular Sciences, 2022)", "tested_on": "fEPSP of CA1 area of mouse hippocampal slice", "assay": "Electrophysiological recording of fEPSP in hippocampal slices", "assay_type": "cell-based", "conditions": "AM-251 2 µM; JWH-175 and JWH-018 both at 1 µM; data not shown", "description": "Procedures for tissue preparation are the same as those described by Ossato et al., 2016 [45]. In brief, after mouse decapitation, the head was immediately chilled in refrigerated artificial cerebrospinal fluid (aCSF, 0 °C) of the following composition (in mM): NaCl, 126; KCl, 2; KH2PO4, 1.25; NaHCO3, 26; MgSO4, 2.0; CaCl2, 2.5; d-glucose, 10. After 1 min, the brain was extracted to isolate the hippocampus and then placed in ice-cold artificial cerebrospinal fluid (aCSF). All solutions were saturated with 95% O2/5% CO2. Transverse hippocampal slices (425 μm thick) were cut with a tissue chopper and then placed for almost 90 min in a Haas-style incubation chamber for recovery before recording.\nA single slice was transferred into a submerged-type recording chamber (3 mL total volume) and continuously superfused (3.0 mL/min) with warmed (32–33 °C) aCSF. WINLTP 2.10 computer software was used for stimulus triggering, PC recording, and analysis. Synaptic responses of CA1 pyramidal neurons were elicited by electrical stimulation of the Schaffer collateral/commissural pathway. Single stimulation pulses (80 µs duration; 0.05 Hz) were delivered by mean of a concentric bipolar electrode (o.d. 125 μm, FHC, USA) connected to a Grass S11 stimulator driving a PSIU6 constant current stimulus isolation unit. To record the fEPSPs, borosilicate glass electrodes fabricated using a microelectrode puller (P97, Sutter Instruments) and filled with aCSF (1.5 ± 0.5 MΩ), inserted in the distal third of the stratum radiatum and 200–300 µm away from stimulating electrodes, were used. The maximal fEPSPs response was reached by adjusting the recording electrode depth. Recorded potentials were amplified (Axoprobe 1A DC-coupled—Cyberamp 320, Molecular Devices, Sunnyvale, CA, USA) and filtered (5.0 kHz) prior to A/D conversion. Upon 10 min of stable synaptic response, a stimulus–response curve (SRC) was generated as previously described to extrapolate a stimulation intensity evoking 70% of maximal fEPSP, to be used throughout the experiment. […] To investigate whether the vehicle had any effect on synaptic activity, the superfusion inlet was switched to a reservoir containing aCSF plus the amount of vehicle present for the corresponding drug concentration (sham application), before switching to the solution also including the drug, for comparison. All reservoirs and tubing were on glass or Teflon to avoid the capturing of cannabinoids by plastic or silicon parts.\nWe analyzed data from in vitro recordings as previously described. […] Effect of treatment was considered steady state when stable +/− 5% for 10 min."}
{"compound": "Cc1c(C(=O)NN2CCCCC2)nn(-c2ccc(Cl)cc2Cl)c1-c1ccc(I)cc1", "note": "[AM-251, 1-(2,4-dichlorophenyl)-5-(4-iodophenyl)-4-methyl-N-1-piperidinyl-1H-pyrazole-3-carboxamide]", "values": [{"measurement": "effect of AM-251 perfusion on the inhibitory effect of JWH-175 and JWH-018 on fEPSP", "result": "completely prevented"}]}
